Measured values reported in patent US10662193B2, “Carbazole and carboline compounds for use in the diagnosis, treatment, alleviation or prevention of disorders associated with amyloid or amyloid-like proteins” (AC IMMUNE SA, priority 2014, dated 2020).

Columns and labels:
AD brain-enriched PHF = AD brain-enriched PHF (Homo sapiens, UniProt P10636); assay: Assay 2 (filter trap): [3H]RefA radio-binding competition assay and Ki on PHF; details: [^3H]RefA 10 nM; for inhibition at 2.5 µM: compound 2.5 μM, no Ki determined; for Ki: PHF diluted 1/80, compound 0.12 nM to 50 μM
Sequence of AD brain-enriched PHF (P10636 623-708 limits assumed): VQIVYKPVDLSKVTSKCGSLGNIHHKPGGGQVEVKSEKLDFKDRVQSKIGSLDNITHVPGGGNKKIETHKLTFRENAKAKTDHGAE
Protocol: Displacement of [^3H]RefA by Compounds of this Invention
50 g of frontal lobe tissue from post-mortem brain of an Alzheimer's disease (AD) patient were obtained from the London Tissue Bank. The patient was a […] and died […]. The brain sample was collected 5 hours post-mortem and characterized for Braak disease stage (Braak, H.; Braak, E. Acta Neuropathol., 1991, 82, 239-259) as stage VI. For the enrichment of PHF's, around 15 g of the AD human brain was thawed on ice and homogenized with 50 ml of homogenization buffer [0.75 M NaCl in RAB buffer (100 mM 2-(N-morpholino) ethanesulfonic acid (MES), 1 mM EGTA, 0.5 mM MgSO4, 2 mM DTT, pH 6.8) supplemented with protease inhibitors (Complete; Roche 11697498001) in a glass Dounce homogenizer. The homogenate was then incubated at 4° C. for 20 min to let any residual microtubules depolymerize, before the homogenate was transferred into polycarbonate centrifuge bottles (16×76 mm; Beckman 355603) and centrifuged at 11,000 g (12,700 RPM) in an ultracentrifuge (Beckman, XL100K) for 20 min at 4° C. using the pre-cooled 70.1 rotor (Beckman, 342184). Pellets were kept on ice. Supernatants were pooled into polycarbonate bottles and centrifuged again at 100,000 g (38,000 RPM) for 1 h at 4° C. in the 70.1 Ti rotor to isolate PHF-rich pellets, whereas soluble tau remained in the supernatants. The pellets from the first and second centrifugations were re-suspended in 120 mL of extraction buffer [10 mM Tris-HCl pH 7.4, 10% sucrose, 0.85 M NaCl, 1% protease inhibitor (Calbiochem 539131), 1 mM EGTA, 1% phosphatase inhibitor (Sigma P5726 and P0044)]. The solution was then transferred into polycarbonate centrifuge bottles (16×76 mm; Beckman 355603) and centrifuged at 15,000 g (14,800 RPM) in an ultracentrifuge (Beckman, XL100K) for 20 min at 4° C. using the 70.1 Ti rotor. In the presence of 10% sucrose and at low speed centrifugation, most PHF remained in the supernatant whereas intact or fragmented NFTs and larger PHF aggregates were pelleted. The pellets were discarded. 20% Sarkosyl (Sigma L7414-10ML) was added to the supernatants to a final concentration of 1% and stirred at room temperature for 1 h. This solution was then centrifuged into polycarbonate bottles at 100,000 g (38,000 RPM) for 1 h at 4° C. in the 70.1 Ti rotor, and the pellets containing PHF-rich material were re-suspended in a total final volume of 1.5 mL of PBS, aliquoted and stored at −80° C.
[^3H]RefA Radio-Binding Competition Assay
AD brain-enriched PHF diluted 1/80 were incubated in the presence of [^3H]RefA at 10 nM and the example compounds of this invention at 2.5 μM (250× excess), for 45 minutes at 37° C. Samples were then analyzed by on GF/B filter plates as described above (in the section “[^3H]RefA radio-binding assay and determination of the dissociation constant (Kd)). Non-specific signal was determined again with an excess of un-labeled RefA and specific binding calculated by subtracting the non-specific signal from the total signal. Competition was calculated as percent, where 0% was defined as the specific binding in the presence of vehicle (2.8% DMSO in PBS) and 100% as the values obtained in the presence of excess cold RefA. Similar assays were performed to determine the competition of the cold compounds on [^3H]RefA on in vitro aggregated recombinant human tau or Abeta1-42 For both recombinant proteins, 20 μg/mL of aggregates were incubated with 10 nM of [^3H]RefA for recombinant human tau or 80 nM of [^3H]RefA for recombinant human Abeta1-42.
Determination of the Binding Affinity (Ki)
Samples were then analyzed on GF/B filter plates as described above and Ki values calculated using Prism V5 (GraphPad).

[1] = test system: Aβ plaques on AD brain section; assay: Assay 1: displacement of Compound B on human AD brain sections (fluorescence); type: binding
Protocol: Direct Binding of Compounds of this Invention to Human Alzheimer's Disease Brain Sections and/or Displacement of RefA and Compound B Frozen sections with a thickness of […] from the amygdala of donors diagnosed with Braak stage V-VI Alzheimer's Disease (Braak, H.; Braak, E. Acta Neuropathol., 1991, 82, 239-259), were purchased from a commercial provider (Tissue Solutions) and kept at -80° C. until use. Displacement of RefA and Compound B Brain sections were mainly treated as described above. Test compounds were, however, incubated on the section at 250 μM in 50% ethanol for 20 min at room temperature, and then directly incubated with the fluorescent reference compounds RefA and Compound B, each at 1 μM in 50% ethanol for 20 min at room temperature. RefA and Compound B stainings were visualized using the 470 nm and 365 nm excitation filters, respectively. Images were acquired, and tangles and plaques quantified using the NIS-Element software. Only those compounds not directly staining tangles or plaques at the same wavelengths as RefA and Compound B were tested in the displacement assay. Structure of Compound B (prepared by a similar procedure described for […] in WO2010/011964): […]

[2] = test system: tau tangles on AD brain section; assay: Assay 1: displacement of RefA on human AD brain sections (fluorescence); type: binding; details: for Selectivity (tau/Abeta): ratio of competition on tau tangles to competition on Aβ plaques
Protocol: (§1) Direct Binding of Compounds of this Invention to Human Alzheimer's Disease Brain Sections and/or Displacement of RefA and Compound B
(§2) Frozen sections with a thickness of […] from the amygdala of donors diagnosed with Braak stage V-VI Alzheimer's Disease (Braak, H.; Braak, E. Acta Neuropathol., 1991, 82, 239-259), were purchased from a commercial provider (Tissue Solutions) and kept at −80° C. until use.
Displacement of RefA and Compound B
Brain sections were mainly treated as described above. Test compounds were, however, incubated on the section at 250 μM in 50% ethanol for 20 min at room temperature, and then directly incubated with the fluorescent reference compounds RefA and Compound B, each at 1 μM in 50% ethanol for 20 min at room temperature. RefA and Compound B stainings were visualized using the 470 nm and 365 nm excitation filters, respectively. Images were acquired, and tangles and plaques quantified using the NIS-Element software. Only those compounds not directly staining tangles or plaques at the same wavelengths as RefA and Compound B were tested in the displacement assay.
Structure of RefA (Tago et al., J. Label. Compd. Radiopharm. 2013, DOI: 10.1002/jlcr.3133)

[3] = test system: tau tangles/Aβ plaques on AD brain sections; assay: Assay 1: direct staining of human Alzheimer's disease brain sections (fluorescence); type: binding; design: key to Direct staining of tau tangles/Aβ plaques on AD brain sections at 100 μM / Direct staining of tau tangles on AD brain sections at 100 μM / Direct staining of Aβ plaques on AD brain sections at 100 μM / Direct staining of tau tangles on AD brain sections (footnote a: at 250 μM): − (No); +++ (strong); ++ (good); + (weak); details: for Direct staining of tau tangles/Aβ plaques on AD brain sections at 100 μM: human AD brain sections, fluorescence, cell does not say tangles or plaques
Protocol: Assay 1 (Fluorescence Based Assay):
as §1, §2
Direct Staining of Human Alzheimer's Disease Brain Sections
Brain sections were encircled with pap pen liquid blocker to reduce the volume of solution for the different incubations. Sections were fixed for 15 min at 4° C. with 4% paraformaldehyde and washed three times 5 minutes with PBS at room temperature. […] To reduce the auto-fluorescence of the tissue, the sections were incubated in a solution of 0.1% Sudan Black (Sigma 199664) in 70% ethanol for 15 min at room temperature in the dark, washed four times for 5 minutes with PBS, and mounted using ProLong Gold Antifade reagent (Invitrogen P36930). Sections were then analyzed on the Nikon Eclipse Ti microscope to detect staining and imaged using Nikon DS-Fi2 camera and NIS-Element AR4.13.1 software.

inhibition at 2.5 µM (AD brain-enriched PHF) [%] | Competition on AD brain section Aβ plaques (1 μM Compound B vs 250 μM compound) [1] [%] | Competition on AD brain section tau tangles (1 μM RefA vs. 250 μM compound) [2] | Structure (SMILES) | Direct staining of tau tangles/Aβ plaques on AD brain sections at 100 μM ([3]; 100 μM compound) | Direct staining of tau tangles on AD brain sections at 100 μM ([3]; 100 μM compound, tangles) | further results
< 50 |  |  | Cn1c2c(c3ccc(Nc4ccc(F)c(F)c4)nc31)C(=O)N(CCCN)CC2 [212 Step F] |  |  | 
 | 32 | 84% | Cn1c2ccncc2c2ccc(Nc3cccc(N4CCOCC4)c3)nc21 [Example 1] | − |  | Ki (AD brain-enriched PHF): 78 nM; Selectivity (tau/Abeta) [2]: ~2.6 fold
 | 8 | 78% | Cn1c2ccncc2c2ccc(Nc3ccc(F)c(N4CCOCC4)c3)nc21 [Example 3] | − |  | Ki (AD brain-enriched PHF): 233 nM; Selectivity (tau/Abeta) [2]: ~9.8 fold
< 50 |  |  | Cn1c2ccncc2c2ccc(Nc3ccc(F)c(C#N)c3)nc21 [Example 6] |  | +++ (tangles) | 
< 50 |  |  | Cn1c2ccncc2c2ccc(Nc3cc(N4CCOCC4)ccc3F)nc21 [Example 10] | − |  | 
 |  |  | Cn1c2ccncc2c2ccc(Nc3ccc(OC(F)F)nc3)nc21 [Example 11] |  | ++ (tangles) | Ki (AD brain-enriched PHF): 188 nM
 |  |  | Cn1c2ccncc2c2ccc(Nc3cccc(OC(F)(F)F)c3)nc21 [Example 13] |  |  | Ki (AD brain-enriched PHF): 169 nM
 |  |  | Cn1c2ccncc2c2ccc(Nc3cccc(F)c3N3CCOCC3)nc21 [Example 14] |  |  | Ki (AD brain-enriched PHF): 371 nM
< 50 |  |  | Cn1c2ccncc2c2ccc(Nc3c(F)cccc3N3CCOCC3)nc21 [Example 15] |  |  | 
< 50 |  |  | Cn1c2ccncc2c2ccc(Nc3cc(F)ccc3N3CCOCC3)nc21 [Example 16] | − |  | 
< 50 |  |  | Cn1c2ccncc2c2ccc(Nc3ccc(C#N)c(F)c3)nc21 [Example 17] |  | +++ (tangles) | 
 | −21 | 88% | Cn1c2ccncc2c2ccc(Nc3cccc(OCCF)n3)nc21 [Example 44] |  | ++ (tangles) | Selectivity (tau/Abeta) [2]: >88 fold
 | −9 | 93%. | Cn1c2ccncc2c2ccc(Nc3cncc(OCCF)c3)nc21 [Example 59] |  | +++ (tangles) | Selectivity (tau/Abeta) [2]: >93 fold
 | 35 |  | Cn1c2ccncc2c2ccc(Nc3cncc(OCCOCCF)c3)nc21 [Example 65] |  | ++ (tangles) | 
 | 59 |  | Cn1c2ccncc2c2ccc(Nc3cccc(OCCOCCF)c3)nc21 [Example 95] |  | ++ (tangles) | 
 | 18 |  | Cn1c2ccncc2c2ccc(Nc3cccc(OCCOCCOCCF)c3)nc21 [Example 96] |  | ++ (tangles) | 
 | 3 | 18% | Cn1c2ccncc2c2ccc(N3CCOC[C@H]3CF)nc21 [Example 150] |  |  | Direct staining of tau tangles on AD brain sections (footnote a: at 250 μM) ([3]; 250 μM compound, tangles): + (tangles)^a
 | 42 | 99% | Cn1c2ccncc2c2ccc(N3CCC(CCF)CC3)nc21 [Example 151] | − |  | Selectivity (tau/Abeta) [2]: ~2.4-fold
 | 15 | 90% | Cn1c2ccncc2c2ccc(N3CCC(CCOCCF)CC3)nc21 [Example 155] |  | + (tangles) + (plaques) | Selectivity (tau/Abeta) [2]: ~6-fold; Direct staining of Aβ plaques on AD brain sections at 100 μM ([3]; 100 μM compound, plaques): + (tangles) + (plaques)
< 50 |  | 20% | CN1CCc2c(c3ccc(Nc4ccc5c(c4)OCO5)nc3n2C)C1=O [Example 170] | − |  | 
< 50 |  |  | COc1cc(Nc2ccc3c4c(n(C)c3n2)CCN(C)C4=O)ccc1C [Example 171] | − |  | 
< 50 |  | 16% | CN1CCc2c(c3ccc(Nc4ccc5ncn(C)c5c4)nc3n2C)C1=O [Example 172] | − |  | 
< 50 |  |  | Cn1c2c(c3ccc(Nc4ccc(F)c(F)c4)nc31)C(=O)NCC2 [Example 174] | − |  | 
